Numbered stars: 1 amine (or outer) side, 2 acyl side, 3 side chain; on linkers, the order of the positions; unused ones are H or OH. Bridge positions count the residues as written; N and C are the ends. Square brackets hold non-standard residues; d marks the D form. Peptide text beside a SMILES is read from it. ξ: configuration not given here. ξαMeNle(6-ylidene) = CC(CCCC=[*:3])(N[*:1])C(=O)[*:2]; Nle = CCCC[C@H](N)C(=O)O
Assays:
[1] = tested on: OVCAR8; assay type: cell-based, human; conditions: 24 h
Outline: (§1)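 Steps: cells washed into serum-free Opti-MEM and plated at 4000/well; macrocycles added at final 0.6–20 μM serum-free or 1.5–50 μM with 2% human serum; incubated 24 h at 37 °C; ATP luminescence (CellTiter-Glo) measured and EC50 calculated from percent viability relative to DMSO wells.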

[2] = tested on: Raji; assay type: cell-based, human; conditions: 24 h
Outline: as §1

[3] = tested on: leukemia/lymphoma human cell lines; assay: MTT cell viability assay, leukemia/lymphoma lines; assay type: cell-based; conditions: 20 μM, MTT 48 hrs, FIG. 1
Description: (§2) Cell viability assays shown in FIGS. 1-32 were performed according to the following protocol. Tumor cell lines were grown in specific serum-supplemented media (growth media) as necessary. A day prior to the initiation of the study, cells were plated at optimal cell density (15,000 to 25,000 cells/well) in 200 μl growth media in microtiter plates. The next day, cells were washed twice in serum-free/phenol red-free RPMI complete media (assay buffer) and a final volume of 100 μl assay buffer was added to each well. Human peripheral blood lymphocytes (hPBLs) were isolated from Buffy coats (San Diego Blood Bank) using Ficoll-Paque gradient separation and plated on the day of the experiment at 25,000 cells/well.
(§3) Peptidomimetic macrocycles were diluted from 1 mM stocks (100% DMSO) in sterile water to prepare 400 μM working solutions. The peptidomimetic macrocycles and controls were then diluted 10 or […] or alternatively serially two-fold diluted in assay buffer in dosing plates to provide concentrations of either 40 and 20 μM or between 1.2 and 40 μM, respectively. […]
(§4) Towards the end of the 4 hour incubation time, 22 μl FBS was added to each well for a total concentration of 10% FBS. […] At the end of the incubation period, MTT assay was performed according to manufacturer's instructions (Sigma, catalog #M2128) and absorbance was measured at 560 nm using Dynex Opsys MR Plate reader. […]

[4] = tested on: NCI-H146; assay: MTT cell viability assay, NCI-H146; assay type: cell-based, human; conditions: 20 μM, MTT 48 hrs, FIG. 1
Description: as §2, §3, §4

[5] = tested on: H-460; assay: MTT cell viability assay, H-460; assay type: cell-based, human; conditions: 20 μM, MTT 48 hrs, FIG. 1
Description: as §2, §3, §4

[6] = tested on: MCF7; assay: MTT cell viability assay, MCF7; assay type: cell-based, human; conditions: 20 μM, MTT 48 hrs, FIG. 1
Description: as §2, §3, §4

[7] = tested on: U251; assay: MTT cell viability assay, U251; assay type: cell-based, human; conditions: 20 μM, MTT 48 hrs, FIG. 1
Description: as §2, §3, §4

[8] = tested on: resting human peripheral lymphocytes (hPBLs); assay: Cell viability of resting hPBLs; assay type: cell-based; conditions: FIG. 16
Description: as §2, §3, §4

[9] = tested on: activated hPBLs; assay: BrdU cell proliferation assay; assay type: cell-based, human; conditions: hPBLs activated by PMA+ionomycin+LPS; 5 or 20 μM, 48 hrs; compared with 1 μM Rapamycin
Description: […] 1 μM Rapamycin was used as a positive control to inhibit BrdU incorporation. BrdU incorporation was assayed by ELISA according to manufacturer's instructions (Roche, catalog number 11444611001).

[10] = Melting temperature determination by circular dichroism; assay type: physicochemical; conditions: 50 μM in ddH2O, CD at 222 nm, 5-95° C.
Description: To assay the effect of macrocycle formation on meltine temperature, peptidomimetic macrocycles or unmodified peptides are dissolved in distilled H2O (e.g. at a final concentration of 50 μM) and the Tm is determined by measuring the change in ellipticity over a temperature range (e.g. 4 to 95° C.) on a spectropolarimeter (e.g., Jasco J-710) using standard parameters (e.g. wavelength 222 nm; step resolution, 0.5 nm; speed, 20 nm/sec; accumulations, 10; response, 1 sec; bandwidth, 1 nm; temperature increase rate: 1° C./min; path length, 0.1 cm).
Lyophilized SP-1 was dissolved in ddH2O to a final concentration of 50 μM. Tm was determined by measuring the circular dichroism (CD) spectra in a Jasco-810 spectropolarimeter at a fixed wavelength of 222 nm between the temperatures of 5-95° C. The following parameters were used for the measurement: data pitch, 0.1° C.; bandwidth, 1 nm and path length, 0.1 cm averaging the signal for 16 seconds.

CCCC[C@H](NC(=O)C1(C)CCCC=CCCCC(C)(NC(=O)[C@H](C)NC(=O)[C@H](CC(C)C)NC(=O)[C@H](Cc2c[nH]cn2)NC(=O)[C@H](CCCNC(=N)N)NC(=O)[C@H](C)NC(=O)[C@@H](NC(=O)[C@H](CC(N)=O)NC(=O)[C@H](CCCNC(=N)N)NC(=O)[C@@H](NC(=O)[C@@H](NC(=O)[C@H](CC(=O)O)NC(C)=O)[C@@H](C)CC)[C@@H](C)CC)[C@@H](C)CC)C(=O)N[C@@H](C(C)C)C(=O)NCC(=O)N[C@@H](CC(=O)O)C(=O)N1)C(=O)N[C@@H](CC(=O)O)C(=O)N[C@@H](CCCNC(=N)N)C(=O)N[C@@H](CO)C(=O)N[C@H](C(N)=O)[C@@H](C)CC (stereo partly shown) [SP-1] (Ac-DIIRNIARHLA[ξαMeNle(6-ylidene)]VGD[ξαMeNle(6-ylidene)][Nle]DRSI-NH2; staple 12-16)
EC50 [1]: 20 µM
EC50 [2]: 13 µM
sensitivity of all leukemia/lymphoma lines tested [3]: sensitive
apoptosis of NCI-H146 (SCLC) [4]: induced apoptosis
sensitivity of H-460 (NSCLC) [5]: resistant
sensitivity of MCF7 (breast cancer) [6]: resistant
sensitivity of U251 (glioma) [7]: resistant
programmed cell death of resting hPBLs [8]: does not induce programmed cell death
blocking the proliferation of activated hPBLs (BrdU incorporation) [9]: as effective as rapamycin
temperature up to which helical conformation is maintained [10]: up to 64 °C

From patent US20150038430A1, “THERAPEUTIC PEPTIDOMIMETIC MACROCYCLES” (AILERON Therapeutics, Inc., priority 2008, published 2015)
